Assay results from patent publication US20230086683A1, “PLATELET STORAGE METHODS AND COMPOSITIONS” (Platefuse, Inc., priority 2020, published 2023).

Tested on: washed human platelet suspension
Assay: Inhibition of collagen-induced platelet aggregation (Lumi-Aggregometer)
Assay type: cell-based
Details: washed human platelets, 37° C., 2 min preincubation, collagen 1-4 μg/ml, read out at 6 min after induction, read-out: IC50 (concentration at which 50% aggregation is reached), platelet aggregation inhibitors
Procedure: Platelet shape change in washed platelets was monitored using an aggregometer and the decrease in light transmittance following addition of an agonist (Huzoor et al., 1993). For the purpose of this analysis, collagen was used as the agonist. Briefly, a washed human platelet suspension was incubated at 37° C. in a Lumi-Aggregometer (Chrono-Log Corporation) with stirring at 900 rpm, followed by the addition of dimethylsulfoxide (DMSO) as a control vehicle, or various compounds dissolved in DMSO. After incubating the samples with the respective compound for 2 minutes, platelet aggregation was induced by, adding collagen (1-4 μg/ml) and the relative aggregation value was read out at 6 min after the induction. A dose response for each compound was derived.

Question: How did the IC50 turn out when `O=C(NNc1ccnc2ccccc12)c1ccc(Cl)c(Cl)c1` [UC-177617] was run?
Answer: 16.2 µM

Question: With `O=C(NNc1ccnc2c(C(F)(F)F)cccc12)c1ccc(Cl)c(Cl)c1` [UC-177618] as the compound, how does the IC50 read?
Answer: 1.5 µM

Question: With `O=C(NNc1ccnc2cc(Cl)ccc12)c1ccc(Cl)c(Cl)c1` [UC-177619] as the compound, how does the IC50 read?
Answer: 1.4 µM

Question: How did the IC50 turn out when `O=C(NNc1ccnc2ccccc12)c1cc2ccccc2[nH]1` [UC-177626] was run?
Answer: 10.1 µM

Question: `O=C(NNc1ccnc2cc(C(F)(F)F)ccc12)c1cc2ccccc2[nH]1` [UC-177627] was tested. Which IC50 did it give?
Answer: 4.3 µM

Question: `O=C(NNc1ccnc2c(C(F)(F)F)cccc12)c1cc2ccccc2[nH]1` [UC-177628] was tested. Which IC50 did it give?
Answer: 5.8 µM

Question: `O=C(NNc1ccnc2cc(Cl)ccc12)c1cc2ccccc2[nH]1` [UC-177629] was tested. Which IC50 did it give?
Answer: 2.3 µM

Question: With `Cc1ccc(C(=O)NNc2ccnc3c(C(F)(F)F)cccc23)cc1` [UC-177633] as the compound, how does the IC50 read?
Answer: 2.3 µM

Question: How did the IC50 turn out when `Cc1ccc(C(=O)NNc2ccnc3cc(Cl)ccc23)cc1` [UC-177634] was run?
Answer: 6.7 µM
